Measurements reported in publication PMC6844378, “Structure activity relationship studies on Amb639752: toward the identification of a common pharmacophoric structure for DGKα inhibitors” (Journal of Enzyme Inhibition and Medicinal Chemistry, 2019).

System: serotonin receptors
Assay: Superoxide anion production: serotonin effect on PMA-induced oxidative burst in monocytes
Type: cell-based
Conditions: drugs 10 µM, 1 h; serotonin 1 µM; PMA 1 µM 30 min; human monocytes
Protocol: Human monocytes were isolated from healthy anonymous human buffy coats (provided by the Transfusion Service of Ospedale Maggiore della Carità, Novara, Italy) by the standard technique of dextran sedimentation and Histopaque (density = 1.077 g cm^3, Sigma-Aldrich, Milano, Italy) gradient centrifugation (400×g, 30 min, room temperature) and recovered by fine suction at the interface, as described previously. Purified monocytes populations were obtained by adhesion (90 min, 37 °C, 5% CO2) in serum-free RPMI 1640 medium (Sigma-Aldrich, Milano, Italy) supplemented with 2 mM glutamine and antibiotics. Cell viability (trypan blue dye exclusion) was usually >98%.
All the experiments were performed in triplicate using cells isolated from each single donor.
Monocytes (250,000 cells/well) were treated for 1 h with the indicated drugs (10 µM) with or without serotonin (1 µM). Then, cells were stimulated with phorbol 12-myristate 13-acetate (PMA; Sigma-Aldrich, Milano, Italy) 1 µM for 30 min. PMA is a well-known stimulus that induces a strong and significant respiratory burst via PKC activation. Superoxide anion production was then evaluated by the superoxide dismutase (SOD)-sensitive cytochrome C (CytC) reduction assay and expressed as nmoles CytC reduced/10^6 cells/30 min, using an extinction coefficient of 21.1 mM. To avoid interference with spectrophotometrical recordings, cells were incubated with RPMI 1640 without phenol red, antibiotics, and FBS.
To this purpose, we measured the effect of serotonin on PMA-induced oxidative burst in human monocytes. As previously shown, 1 µM serotonin reverses the oxidative burst to control values.
Figure 8. […] Results are expressed as n moles of reduced cytochrome C/10^6 cells. Data are means ± SEM of 10 independent experiments performed in triplicate.

Cc1ccc2c(C(=O)CN3CCN(C(=O)c4ccco4)CC3)c(C)[nH]c2c1 [Amb639752]
effect on serotonin action on PMA-induced oxidative burst: had no effect
